The results in this text go back to ChEMBL document CHEMBL4376853, “Synthesis and structure-activity relationship studies of α-naphthoflavone derivatives as CYP1B1 inhibitors” (Eur J Med Chem, 2020).

One data set deals with T1, Cytochrome P450 1A2 (Homo sapiens, UniProt P05177).
T1 sequence (P05177 whole entry): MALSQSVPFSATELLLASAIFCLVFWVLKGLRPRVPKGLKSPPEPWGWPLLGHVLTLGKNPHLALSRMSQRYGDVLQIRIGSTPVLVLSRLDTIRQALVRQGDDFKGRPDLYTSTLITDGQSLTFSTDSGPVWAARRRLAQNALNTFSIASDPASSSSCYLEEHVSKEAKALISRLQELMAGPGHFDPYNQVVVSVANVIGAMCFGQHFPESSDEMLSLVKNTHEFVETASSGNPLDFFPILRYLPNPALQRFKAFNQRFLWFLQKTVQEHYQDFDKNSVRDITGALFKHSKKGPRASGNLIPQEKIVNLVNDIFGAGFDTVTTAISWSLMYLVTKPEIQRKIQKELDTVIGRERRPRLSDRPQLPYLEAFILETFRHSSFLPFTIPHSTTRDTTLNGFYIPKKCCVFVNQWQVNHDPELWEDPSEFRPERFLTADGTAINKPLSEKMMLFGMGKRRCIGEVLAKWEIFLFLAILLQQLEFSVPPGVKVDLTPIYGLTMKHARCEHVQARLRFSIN
As to the kind of experiment: Inhibition of human recombinant CYP1A2 using 7-ethoxyresorufin as substrate in presence of glucose-6-phosphate, glucose-6-phosphate dehydrogenase and NADPH-generating system incubated for 50 mins by fluorometry. The class given is ADME.

Another data set concerns the target T2, Cytochrome P450 1A1 (Homo sapiens, UniProt P04798).
T2 sequence (P04798 whole entry): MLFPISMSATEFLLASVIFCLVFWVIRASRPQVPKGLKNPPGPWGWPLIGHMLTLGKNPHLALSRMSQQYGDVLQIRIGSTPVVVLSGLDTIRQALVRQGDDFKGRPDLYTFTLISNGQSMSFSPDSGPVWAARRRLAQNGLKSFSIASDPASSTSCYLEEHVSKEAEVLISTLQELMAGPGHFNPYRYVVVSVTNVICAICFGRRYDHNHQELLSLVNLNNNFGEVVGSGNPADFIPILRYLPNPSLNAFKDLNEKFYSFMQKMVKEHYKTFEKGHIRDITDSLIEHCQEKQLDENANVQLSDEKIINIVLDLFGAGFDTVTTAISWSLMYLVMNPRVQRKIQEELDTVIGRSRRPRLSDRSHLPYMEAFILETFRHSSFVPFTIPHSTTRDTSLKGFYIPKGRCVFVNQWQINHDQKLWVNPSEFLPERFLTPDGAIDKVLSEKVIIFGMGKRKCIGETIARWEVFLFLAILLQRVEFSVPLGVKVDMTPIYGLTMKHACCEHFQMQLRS
The data set is described as follows: Inhibition of human recombinant CYP1A1 using 7-ethoxyresorufin as substrate in presence of glucose-6-phosphate, glucose-6-phosphate dehydrogenase and NADPH-generating system incubated for 15 mins by fluorometry. Format: ADME.

The target of data set [1] is T3, Cytochrome P450 1B1 (Homo sapiens, UniProt Q16678).
T3 sequence (Q16678 whole entry): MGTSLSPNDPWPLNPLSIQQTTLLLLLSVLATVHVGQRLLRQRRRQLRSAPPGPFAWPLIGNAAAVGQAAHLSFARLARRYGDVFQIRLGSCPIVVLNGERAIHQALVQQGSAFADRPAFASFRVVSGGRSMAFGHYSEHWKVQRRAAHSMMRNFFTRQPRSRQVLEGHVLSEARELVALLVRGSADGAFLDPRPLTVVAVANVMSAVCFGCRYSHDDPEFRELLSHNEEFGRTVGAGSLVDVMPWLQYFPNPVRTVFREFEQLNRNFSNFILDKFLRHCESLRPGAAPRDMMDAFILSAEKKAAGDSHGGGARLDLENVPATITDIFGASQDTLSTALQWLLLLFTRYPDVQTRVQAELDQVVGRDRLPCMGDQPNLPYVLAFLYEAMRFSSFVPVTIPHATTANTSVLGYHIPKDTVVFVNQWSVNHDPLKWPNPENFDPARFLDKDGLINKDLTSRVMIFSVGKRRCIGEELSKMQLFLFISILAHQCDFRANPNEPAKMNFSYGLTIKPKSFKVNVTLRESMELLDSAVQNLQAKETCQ
As to the kind of experiment: Inhibition of human recombinant CYP1B1 using 7-ethoxyresorufin as substrate in presence of glucose-6-phosphate, glucose-6-phosphate dehydrogenase and NADPH-generating system incubated for 35 mins by fluorometry.

The species entered for data set [2] is Homo sapiens. As to the kind of experiment: Selectivity index, ratio of IC50 for human recombinant CYP1A1 to IC50 for human recombinant CYP1B1 using 7-ethoxyresorufin as substrate in presence of glucose-6-phosphate, glucose-6-phosphate dehydrogenase and NADPH-generating system by fluorometry.
The nature of data set [3]: Aqueous solubility of the compound. Format: physicochemical. The note with it: buffer.
Data set [4] concerns the target T3, Cytochrome P450 1B1. The data set is described as follows: Potency index, ratio of IC50 for ANF to IC50 for test compound for inhibition of human recombinant CYP1B1 using 7-ethoxyresorufin as substrate in presence of glucose-6-phosphate, glucose-6-phosphate dehydrogenase and NADPH-generating system incubated for 35 mins by fluorometry. The note with it: for selectivity ratio at 35 min: read-out: Ratio IC50.

The species named for data set [5] is Homo sapiens. As to the kind of experiment: Selectivity index, ratio of IC50 for human recombinant CYP1A2 to IC50 for human recombinant CYP1B1 using 7-ethoxyresorufin as substrate in presence of glucose-6-phosphate, glucose-6-phosphate dehydrogenase and NADPH-generating system by fluorometry.

As usually defined, the IC50 is the concentration needed to halve the response being measured. For orientation: solubility means how much of the substance goes into solution per volume. Read a low solubility as little dissolved substance. As for `CN1CCN(c2ccc(-c3cc(=O)c4ccc5ccccc5c4o3)cc2)CC1`, the IC50 is more than 1000 nM on Cytochrome P450 1A2, 153 nM on Cytochrome P450 1A1 and 63.8 nM on Cytochrome P450 1B1 [1]. Further, the Ratio IC50 in the data set listed under Homo sapiens [2] is 2.4. The solubility in data set [3] was more than 20 mg/mL.
As for `CN1CCN(c2cc(Cl)cc(-c3cc(=O)c4ccc5ccccc5c4o3)c2)CC1`, the IC50 on Cytochrome P450 1A2 is more than 1000 nM; at Cytochrome P450 1A1, 37.9 nM; at Cytochrome P450 1B1 [1], 47.7 nM. Also, in the data set listed under Homo sapiens [2], the Ratio IC50 was 0.8. At Cytochrome P450 1B1 [4], the selectivity ratio at 35 min came out at 0.12.
For the compound `S=c1cc(-c2ccc(Cl)cc2)oc2c1ccc1ccccc12`, the values for the concentration for half-maximal inhibition (IC50) at Cytochrome P450 1A2, on Cytochrome P450 1A1 and at Cytochrome P450 1B1 [1] were 53.2 nM, 9.6 nM and 1.6 nM, respectively. For the same compound, the Ratio IC50 in the data set listed under Homo sapiens [2] stood at 6; in the data set filed under Homo sapiens [5], 33.3. At Cytochrome P450 1B1 [4], the relative potency vs ANF (IC50 ratio) at 35 min came to 3.
As for `O=c1cc(-c2cccc(C(F)(F)F)c2)oc2c1ccc1ccccc12`, the results for the IC50 at Cytochrome P450 1A2, at Cytochrome P450 1A1 and at Cytochrome P450 1B1 [1] were 94.2 nM, 16.7 nM and 0.52 nM, respectively. The Ratio IC50 was determined as 32.1 in the data set listed under Homo sapiens [2] and 181 in the data set filed under Homo sapiens [5]. Besides, the selectivity ratio at 35 min at Cytochrome P450 1B1 [4] worked out at 11.3.
Regarding `O=c1cc(-c2ccncc2)oc2c1ccc1ccccc12`, the IC50 at Cytochrome P450 1A2 came to 36.4 nM; on Cytochrome P450 1A1, 18.7 nM; on Cytochrome P450 1B1 [1] it was 9.3 nM. The values for the Ratio IC50 in the data set listed under Homo sapiens [2] and in the data set listed under Homo sapiens [5] were 2 and 3.9, respectively.
`O=c1cc(-c2cccc(Cl)c2)oc2c1ccc1ccccc12`: the values for the IC50 on Cytochrome P450 1A2, on Cytochrome P450 1A1 and at Cytochrome P450 1B1 [1] were 73.6 nM, 5.2 nM and 0.49 nM, respectively. The Ratio IC50 in the data set listed under Homo sapiens [2] was 10.6; in the data set listed under Homo sapiens [5] it was 150. On Cytochrome P450 1B1 [4], the relative potency vs ANF (IC50 ratio) at 35 min amounted to 12.
In the case of `COc1cc(-c2cc(=O)c3ccc4ccccc4c3o2)cc(OC)c1OC`, the IC50 at Cytochrome P450 1A2 is more than 1000 nM; on Cytochrome P450 1A1, 3 nM; on Cytochrome P450 1B1 [1] it was 5.1 nM. Also, the values for the Ratio IC50 in the data set filed under Homo sapiens [2] and in the data set filed under Homo sapiens [5] were 0.6 and more than 196, respectively.
Turning to `O=c1cc(-c2cccc(N3CCOCC3)c2)oc2c1ccc1ccccc12`, the IC50 on Cytochrome P450 1A2 worked out at 318 nM; at Cytochrome P450 1A1 it was 30.9 nM; on Cytochrome P450 1B1 [1], 2 nM. Moreover, the Ratio IC50 in the data set filed under Homo sapiens [2] is 15.5; in the data set filed under Homo sapiens [5] it was 159. The selectivity ratio at 35 min at Cytochrome P450 1B1 [4] stood at 3.
`COc1cc(-c2cc(=S)c3ccc4ccccc4c3o2)cc(OC)c1OC`: the IC50 was more than 1000 nM at Cytochrome P450 1A2, 28.2 nM on Cytochrome P450 1A1 and 18.8 nM on Cytochrome P450 1B1 [1]. Besides, the results for the Ratio IC50 in the data set listed under Homo sapiens [2] and in the data set filed under Homo sapiens [5] were 1.5 and more than 53.2, respectively.
For the compound `O=c1cc(-c2ccc(F)c(F)c2)oc2c1ccc1ccccc12`, the IC50 at Cytochrome P450 1A2 was 28.6 nM; at Cytochrome P450 1A1, 11.8 nM; at Cytochrome P450 1B1 [1], 5.6 nM. In addition, the Ratio IC50 in the data set listed under Homo sapiens [2] stood at 2.1; in the data set filed under Homo sapiens [5] it was 5.1.
On to `O=C1C=C(c2cccc(Cl)c2)S(=O)(=O)c2c1ccc1ccccc21`, for which the IC50 on Cytochrome P450 1A2 is 699 nM; at Cytochrome P450 1A1, more than 1000 nM; at Cytochrome P450 1B1 [1] it was 250 nM. Besides, the values for the Ratio IC50 in the data set listed under Homo sapiens [2] and in the data set listed under Homo sapiens [5] were more than 4 and 2.8, respectively.
Regarding `O/N=c1\cc(-c2ccccc2)oc2c1ccc1ccccc12`, the IC50 on Cytochrome P450 1A2 was 74.6 nM; on Cytochrome P450 1A1 it was 32.1 nM; at Cytochrome P450 1B1 [1], 3.2 nM. In addition, the Ratio IC50 was 10 in the data set filed under Homo sapiens [2] and 23.3 in the data set filed under Homo sapiens [5].
Turning to `Fc1ccccc1-c1cc(=S)c2ccc3ccccc3c2o1`, the values for the IC50 on Cytochrome P450 1A2, at Cytochrome P450 1A1 and at Cytochrome P450 1B1 [1] were 51.8 nM, 31.9 nM and 10.6 nM, respectively. In addition, the Ratio IC50 is 3 in the data set listed under Homo sapiens [2] and 4.9 in the data set filed under Homo sapiens [5].
